Data set [1] can be described thus: Dielectric withstand test (breakdown voltage, step DC, uniform field). It counts as physicochemical. The protocol:
In addition to these tests, the dielectric strength of a mixture containing a monohydrofluoroolefin according to various embodiments, specifically 2-C4HF7, and having a dew point of −5° C. and −30° C., respectively, was determined and compared to the respective dielectric strength of the perfluoroketone decafluoro-3-methylbutan-2-one (“C5”).
Specifically, dielectric withstand tests were performed under DC (step DC, rise-time 300 ns, maximum application time 30 s) in a small vessel (6 L) and custom-built for dielectric testing. Large electrodes (12 cm diameter) with a Rogowski-profile and separated by a small (1.0 cm) distance were used to obtain a uniform field. Prior to the test, the electrodes were sandblasted to create a uniform surface roughness profile (Rt=40 μm).
A large amount of measurements (typically, more than 100) of measurements were performed; the peak voltage level used for each voltage application was randomly selected in the region close to U50, the voltage level for which a 50% breakdown probability is expected. The outcome (breakdown or hold) of each measurement is extracted from the time-dependence of the voltage across the test object. A probit regression is then used to fit the results to a probability distribution and to extract U50 and s, the width of the breakdown probability distribution, from the measurement data.

Data set [2] can be described thus: Decomposition rate under partial discharge in the presence of oxygen. It counts as physicochemical. The note with it: gas mixture with O2 and CO2 (4 vol.-% 2-C4HF7, 4 vol.-% O2, 92 vol.-% CO2); needle-plane electrodes, positive DC 0-35 kV. The protocol: The decomposition rate of 2-C4HF7 in a gas mixture containing carbon dioxide and oxygen were tested. Specifically, a gas mixture containing 4 vol.-% 2-C4HF7, 4 vol.-% O2 and 92 vol.-% CO2 was subjected to partial discharge tests and the resulting decomposition was determined.
Specifically, an experimental setup consisting of a standard GIS-vessel (volume: 55 L) with a needle-plane electrode arrangement was used. A total of ten steel needles (R_100 μm) were connected to a high voltage DC power supply (positive, 0-35 kV). The gap spacing was set to 10 mm. The vessel was equipped with a fan keeping the gas mixture homogeneous during the experiments.

SMILES strings stand for the structures.

Turning to `FC(=C(F)C(F)(F)F)C(F)(F)F` [2-C4F8, octafluorobutene], the breakdown voltage in data set [1] (negative direct current, mixture, partial pressure 228 mbar at 20° C.) was 17.5 kV/mm; in data set [1] (positive direct current, mixture, partial pressure 228 mbar at 20° C.), 17.7 kV/mm. In data set [2], the “decomposition rate under partial discharge” value came out at 7 mmol/C.
`O=C(C(F)(F)F)C(F)(C(F)(F)F)C(F)(F)F` [C5, 1,1,1,3,4,4,4-heptafluoro-3-(trifluoromethyl)-butan-2-one]: the breakdown voltage was found to be 19.2 kV/mm in data set [1] (negative direct current, mixture with O2 and CO2, dew point -5° C.); 16.5 kV/mm in data set [1] (negative direct current, mixture with O2 and CO2, dew point -30° C.); 19.7 kV/mm in data set [1] (positive direct current, mixture with O2 and CO2, dew point -5° C.); 16.9 kV/mm in data set [1] (positive direct current, mixture with O2 and CO2, dew point -30° C.).

Source of the values: patent publication US11978600B2, “Dielectric-insulation or arc-extinction fluid” (HITACHI ENERGY LTD, priority 2019, dated 2024).
